Data from patent US6844174B2, “Fermentation process for lipstatin and method of extracting lipstatin from a fermentation broth” (Biogal Gyogyszergyar Rt., priority 2001, dated 2005).

System: Streptomyces toxytricini
Assay: toxic level of linoleic acid in liquid culture of Streptomyces toxytricini
Format: cell-based
Excerpt: With Streptomyces toxytricini, the toxic level of linoleic acid in liquid culture is about 2,300-3,000 ppm. […] For this reason, the pH of lipstatin fermentation was controlled so that the linoleic acid being liberated from fats and oils was enough for the lipstatin biosynthesis but not raised to a toxic level.

SMILES: CCCCC/C=C\C/C=C\CCCCCCCC(=O)O [linoleic acid]
- toxic level of linoleic acid in liquid culture: 2,300-3,000 ppm
